Laboratory results from patent US20080051466A1, “Isoalpha acid based protein kinase modulation cancer treatment” (Metaproteomics, LLC, priority 2006, published 2008).

Legend:
Experiment in all cases: KinaseProfiler Assay
Assay type in all cases: biochemical
CaMKI = CaMKI (Homo sapiens, UniProt Q14012); conditions: read-out: CaMKI, % of Control
EphB1 = molecular target: T1, EphB1 (Homo sapiens, UniProt P54762); conditions: read-out: EphB1, % of Control
T1 sequence (P54762 18-984): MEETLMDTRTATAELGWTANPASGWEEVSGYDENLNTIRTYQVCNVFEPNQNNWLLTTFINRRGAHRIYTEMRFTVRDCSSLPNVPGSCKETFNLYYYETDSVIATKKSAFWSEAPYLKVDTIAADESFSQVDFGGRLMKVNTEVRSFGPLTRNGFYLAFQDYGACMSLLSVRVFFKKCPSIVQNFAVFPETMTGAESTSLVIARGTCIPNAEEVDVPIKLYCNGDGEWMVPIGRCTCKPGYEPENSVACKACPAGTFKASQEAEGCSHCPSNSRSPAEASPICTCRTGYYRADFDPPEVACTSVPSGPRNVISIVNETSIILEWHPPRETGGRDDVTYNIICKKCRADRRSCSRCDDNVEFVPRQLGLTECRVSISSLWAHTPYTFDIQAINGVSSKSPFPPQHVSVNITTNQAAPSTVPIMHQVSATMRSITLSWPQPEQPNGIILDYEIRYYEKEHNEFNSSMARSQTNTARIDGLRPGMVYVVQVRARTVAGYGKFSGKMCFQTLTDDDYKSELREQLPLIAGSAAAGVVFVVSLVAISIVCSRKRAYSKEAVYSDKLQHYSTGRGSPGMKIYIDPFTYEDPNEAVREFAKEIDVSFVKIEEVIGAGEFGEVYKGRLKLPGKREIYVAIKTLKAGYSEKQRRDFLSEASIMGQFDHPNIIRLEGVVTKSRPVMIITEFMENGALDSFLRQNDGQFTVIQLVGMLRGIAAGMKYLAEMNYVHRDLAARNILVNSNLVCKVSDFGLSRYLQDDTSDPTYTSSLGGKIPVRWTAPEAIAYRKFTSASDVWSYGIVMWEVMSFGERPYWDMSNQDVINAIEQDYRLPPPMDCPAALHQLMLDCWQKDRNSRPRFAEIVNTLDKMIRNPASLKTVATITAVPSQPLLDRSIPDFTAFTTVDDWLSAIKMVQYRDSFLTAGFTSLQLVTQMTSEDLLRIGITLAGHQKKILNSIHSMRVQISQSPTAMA

Fes = Fes (Homo sapiens, UniProt P07332); conditions: read-out: Fes, % of Control
IKKβ = molecular target: T2, IKKβ (Homo sapiens, UniProt O14920); conditions: read-out: IKKβ, % of Control
T2 sequence (O14920 1-756): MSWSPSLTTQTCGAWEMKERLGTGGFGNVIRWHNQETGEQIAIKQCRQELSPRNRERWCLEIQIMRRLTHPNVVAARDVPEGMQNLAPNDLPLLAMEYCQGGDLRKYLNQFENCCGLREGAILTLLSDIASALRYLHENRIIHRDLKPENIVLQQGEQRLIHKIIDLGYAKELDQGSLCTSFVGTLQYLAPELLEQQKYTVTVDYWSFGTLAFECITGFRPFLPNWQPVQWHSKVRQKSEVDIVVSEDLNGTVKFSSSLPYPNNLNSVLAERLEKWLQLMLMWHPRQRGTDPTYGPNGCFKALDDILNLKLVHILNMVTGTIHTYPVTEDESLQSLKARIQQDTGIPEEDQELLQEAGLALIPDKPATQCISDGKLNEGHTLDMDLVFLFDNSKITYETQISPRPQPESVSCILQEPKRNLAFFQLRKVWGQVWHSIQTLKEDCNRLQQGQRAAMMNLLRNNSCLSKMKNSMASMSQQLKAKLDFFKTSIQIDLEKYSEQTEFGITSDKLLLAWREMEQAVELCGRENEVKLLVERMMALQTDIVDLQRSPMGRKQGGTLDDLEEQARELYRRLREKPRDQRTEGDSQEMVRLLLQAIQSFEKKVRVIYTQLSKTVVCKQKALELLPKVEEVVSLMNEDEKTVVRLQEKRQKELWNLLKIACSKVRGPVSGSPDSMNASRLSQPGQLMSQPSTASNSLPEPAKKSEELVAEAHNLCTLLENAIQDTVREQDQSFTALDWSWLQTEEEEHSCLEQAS

p70S6K = p70S6K (Homo sapiens, UniProt P23443); conditions: read-out: p70S6K, % of Control
SGK2 = molecular target: T3, SGK2 (Homo sapiens, UniProt Q9HBY8); conditions: read-out: SGK2, % of Control
T3 sequence (Q9HBY8 1-367): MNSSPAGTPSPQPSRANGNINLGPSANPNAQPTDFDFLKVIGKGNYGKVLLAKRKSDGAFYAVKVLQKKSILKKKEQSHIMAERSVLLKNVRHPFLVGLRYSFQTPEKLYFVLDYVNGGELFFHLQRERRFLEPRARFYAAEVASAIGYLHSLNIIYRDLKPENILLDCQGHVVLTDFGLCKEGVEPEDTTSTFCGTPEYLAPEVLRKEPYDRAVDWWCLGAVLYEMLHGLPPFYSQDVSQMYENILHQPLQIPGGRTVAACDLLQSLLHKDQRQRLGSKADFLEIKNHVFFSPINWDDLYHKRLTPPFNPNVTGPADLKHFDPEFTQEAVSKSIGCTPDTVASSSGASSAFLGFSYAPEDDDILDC

CK1γ1 = CK1γ1 (Homo sapiens, UniProt Q9HCP0); conditions: read-out: CK1γ1, % of Control
Sequence of CK1γ1 (Q9HCP0 whole entry): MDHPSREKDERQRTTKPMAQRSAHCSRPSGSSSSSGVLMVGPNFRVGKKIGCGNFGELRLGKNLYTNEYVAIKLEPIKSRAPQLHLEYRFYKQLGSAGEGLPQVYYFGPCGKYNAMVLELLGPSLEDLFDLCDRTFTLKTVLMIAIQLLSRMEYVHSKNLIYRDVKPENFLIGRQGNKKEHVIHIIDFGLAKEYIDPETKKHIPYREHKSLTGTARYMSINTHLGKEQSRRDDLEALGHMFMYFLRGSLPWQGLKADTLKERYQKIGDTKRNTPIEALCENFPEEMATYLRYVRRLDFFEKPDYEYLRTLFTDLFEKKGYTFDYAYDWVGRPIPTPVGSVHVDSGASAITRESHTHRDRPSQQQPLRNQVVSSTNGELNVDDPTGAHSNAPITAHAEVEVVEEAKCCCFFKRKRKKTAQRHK

Sequence of Fes (P07332 whole entry): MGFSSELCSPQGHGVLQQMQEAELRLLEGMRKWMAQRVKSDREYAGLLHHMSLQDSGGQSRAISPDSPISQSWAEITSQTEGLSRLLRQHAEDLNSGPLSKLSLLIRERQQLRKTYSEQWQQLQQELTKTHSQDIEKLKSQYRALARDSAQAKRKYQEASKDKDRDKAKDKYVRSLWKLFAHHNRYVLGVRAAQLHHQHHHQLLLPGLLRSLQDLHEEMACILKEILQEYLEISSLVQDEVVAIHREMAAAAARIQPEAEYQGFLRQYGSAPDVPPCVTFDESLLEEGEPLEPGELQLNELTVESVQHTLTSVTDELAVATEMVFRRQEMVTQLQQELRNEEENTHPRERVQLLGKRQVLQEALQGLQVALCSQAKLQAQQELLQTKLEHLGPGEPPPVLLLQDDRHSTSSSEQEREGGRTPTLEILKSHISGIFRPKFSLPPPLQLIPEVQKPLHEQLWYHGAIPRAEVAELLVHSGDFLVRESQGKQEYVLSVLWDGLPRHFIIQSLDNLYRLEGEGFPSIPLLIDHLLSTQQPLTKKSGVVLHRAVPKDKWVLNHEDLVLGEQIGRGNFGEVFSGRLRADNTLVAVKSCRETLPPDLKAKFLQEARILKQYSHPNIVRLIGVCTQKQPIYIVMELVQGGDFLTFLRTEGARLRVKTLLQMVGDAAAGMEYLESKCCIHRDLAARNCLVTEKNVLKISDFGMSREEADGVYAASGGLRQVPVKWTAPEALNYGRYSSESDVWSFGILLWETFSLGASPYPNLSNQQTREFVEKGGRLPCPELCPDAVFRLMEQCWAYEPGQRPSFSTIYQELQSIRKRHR
Sequence of p70S6K (P23443 whole entry): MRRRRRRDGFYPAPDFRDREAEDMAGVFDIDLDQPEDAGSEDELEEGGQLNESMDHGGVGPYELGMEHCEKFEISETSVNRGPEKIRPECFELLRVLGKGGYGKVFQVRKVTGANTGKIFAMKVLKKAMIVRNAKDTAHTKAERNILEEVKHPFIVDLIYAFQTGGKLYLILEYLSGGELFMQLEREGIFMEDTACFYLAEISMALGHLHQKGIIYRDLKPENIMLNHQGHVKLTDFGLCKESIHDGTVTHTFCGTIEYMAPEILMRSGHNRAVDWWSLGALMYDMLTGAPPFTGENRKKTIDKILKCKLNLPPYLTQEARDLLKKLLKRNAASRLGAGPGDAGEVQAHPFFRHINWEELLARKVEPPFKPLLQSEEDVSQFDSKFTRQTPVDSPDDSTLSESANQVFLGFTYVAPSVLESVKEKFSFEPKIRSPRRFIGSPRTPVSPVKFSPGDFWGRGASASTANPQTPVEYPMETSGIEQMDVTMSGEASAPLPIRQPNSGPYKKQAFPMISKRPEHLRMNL
Sequence of CaMKI (Q14012 whole entry): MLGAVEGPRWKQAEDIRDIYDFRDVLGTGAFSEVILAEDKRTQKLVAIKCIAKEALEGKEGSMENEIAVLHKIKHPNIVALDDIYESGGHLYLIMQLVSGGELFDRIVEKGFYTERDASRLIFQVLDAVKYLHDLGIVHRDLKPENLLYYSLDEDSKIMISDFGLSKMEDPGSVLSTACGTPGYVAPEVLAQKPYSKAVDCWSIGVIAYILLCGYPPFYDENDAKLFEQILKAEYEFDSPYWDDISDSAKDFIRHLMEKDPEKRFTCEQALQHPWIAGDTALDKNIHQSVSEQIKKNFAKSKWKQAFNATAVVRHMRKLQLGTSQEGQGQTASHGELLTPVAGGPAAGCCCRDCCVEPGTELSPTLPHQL

remaining activity at 1 µg/mL (CaMKI; 1 ug/ml): 142% | remaining activity at 25 µg/mL (CaMKI; 25 ug/ml): 3% | remaining activity at 1 µg/mL (EphB1; 1 ug/ml): 92% | remaining activity at 25 µg/mL (EphB1; 25 ug/ml): 175% | remaining activity at 50 µg/mL (EphB1; 50 ug/ml): 161% | remaining activity at 1 µg/mL (Fes; 1 ug/ml): 131% | remaining activity at 5 µg/mL (Fes; 5 ug/ml): 106% | remaining activity at 25 µg/mL (Fes; 25 ug/ml): 102% | remaining activity at 50 µg/mL (Fes; 50 ug/ml): 26% | remaining activity at 1 µg/mL (IKKβ; 1 ug/ml): 145% | remaining activity at 5 µg/mL (IKKβ; 5 ug/ml): 118% | remaining activity at 25 µg/mL (IKKβ; 25 ug/ml): 61% | remaining activity at 50 µg/mL (IKKβ; 50 ug/ml): 44% | remaining activity at 1 µg/mL (p70S6K; 1 ug/ml): 94% | remaining activity at 5 µg/mL (p70S6K; 5 ug/ml): 48% | remaining activity at 25 µg/mL (p70S6K; 25 ug/ml): 19% | remaining activity at 50 µg/mL (p70S6K; 50 ug/ml): 7% | remaining activity at 1 µg/mL (SGK2; 1 ug/ml): 130% | remaining activity at 5 µg/mL (SGK2; 5 ug/ml): 110% | remaining activity at 50 µg/mL (SGK2; 50 ug/ml): -4% | remaining activity at 1 µg/mL (CK1γ1; 1 ug/ml): 101% | remaining activity at 5 µg/mL (CK1γ1; 5 ug/ml): 79% | remaining activity at 25 µg/mL (CK1γ1; 25 ug/ml): 50% | remaining activity at 50 µg/mL (CK1γ1; 50 ug/ml): 26%
SMILES: COc1cc(O)c(CC=C(C)C)c(O)c1C(=O)/C=C/c1ccc(O)cc1 [Xanthohumol, xanthohumol]
